Patent US4288438A, “Nitrogen-containing heterocyclic ring derivatives and analgesic and anti-inflammatory compositions and methods employing them” (priority 1976, dated 1981)

How the values were obtained:
[1] = test system: Permeability (dye leaked in the abdominal cavity); experiment: Whittle's method: permeability, dye leaked in the abdominal cavity, oral (Table 2); format: in vivo, Male ICR-Mice
Method: (b) Whittle's method (British J. Pharmacol.; 22, 246-253 (1964))
(§1) Male ICR-Mice (weighting 25-35 g.), one group being 12 mice, fasted overnight were used in this test. The sample was orally administered, and 20 minutes after, 5 ml./Kg. of 0.4% Evance blue was injected by intravenously and further 10 minutes after, 10 ml./Kg. of 0.6% acetic acid was injected by intraperitoneally. The number of writhings after 20 minutes since the administration of acetic acid was recorded and 10 minutes after since then, the mice were killed by dislocation of the neck, the dye leaked in the abdominal cavity was washed out with 5 ml. of 0.9% saline to make the total amount 10 ml., and thereafter furs, blood corpuscles, etc., intermingled were removed by centrifugal separation at 3,000 r.p.m. for 5 minutes. Furthermore, for preventing turbidity caused by protein, 0.1 ml. of an aqueous 0.1 normal sodium hydroxide was added and then the absorbance at 590 nm was measured. The inhibition ratio of the sample administered rat groups to control groups was calculated.
(§2) In addition, the test samples used in the aforesaid tests (a), (b), (c) and (d) were prepared by suspending the test compounds, in the cases of using the compounds of Test Nos. 1,2,4,5,6,8,9,10,11, 16-21 and p henylbutazone,in an aqueous 0.5% methyl cellulose solution, dissolving the test compounds, in the cases of using the compounds of Test Nos. 13,14 and 15, in aqueous solution of 0.5% methyl cellulose, and further dissolving the test compounds, in the cases of using the compounds of Test Nos. 3,7 and 12 and aminopyrine, in distilled water.

[2] = test system: Hyperthemia caused by Brewer's yeast; experiment: Antipyretic effect, Brewer's yeast hyperthermia, rectal temperature (Table 3); format: in vivo, Male Wister rats; settings: rat, 50mg/kg p.o., in °C (unit assumed); for Rectal temperature (mean ± SE) 1 hour / Rectal temperature (mean ± SE) 2 hours / Rectal temperature (mean ± SE) 4 hours: * p<0.05 vs before for Test Nos. 1, 2 and Aminopyrine; for Rectal temperature (mean ± SE) 6 hours: * p<0.05 vs before for Test No. 2 and Aminopyrine; for Rectal temperature (mean ± SE) before: before administration
Method: Male Wister rats (weighting 130-150 g.), one group being 5 rats, were used. Hyperthemia was caused by subcutaneous injection of 2 ml./rat of 20% Brewer's yeast suspension. 18 hours later, the rats showing a rise in temperature exceeding 1° C. were selected and allocated into groups each consisting of 5 rats. The sample was orally administered and then the body temperature was measured with the passage of time for 6 hours since then. In addition, the body temperature was measured by measuring the temperature in the rectum by means of a thermister thermometer.
as §2

writhings (acetic acid) = experiment: Whittle's method: acetic acid writhing, oral (Table 2); format: in vivo, Male ICR-Mice; settings: mouse, 0.6% acetic acid i.p.
Method: as §1, §2

[3] = test system: Carrageenin-induced edema; experiment: Carrageenin-induced edema, hind paw, oral (Table 1); format: in vivo, Male Wister rats; settings: rat, 1 hour before Carrageenin, edema weight after 3 hours; for inhibition in vivo at 50 mg/kg: po; for Inhibition (%) p.o. 50mg/kg / inhibition in vivo at 50 mg/kg: p.o. 50 mg/kg
Method: (a) Carrageenin-induced edema
Male Wister rats (weighting 130-170 g.), one group being 6 rats, fasted overnight were used. According to […] [Proc. Soc. […] After 3 hours, each rat was sacrificed by chloroform and the hind paw was cut and weighed immediately. By using the value obtained by subtracting the weight of the untreated hind paw from the weight of the hind paw having injected therein the Carrageenin as the weight of edema, the inhibitory ratio of the sample administered rat groups to control groups was calculated. The sample was orally administered one hour before the injection of Carrageenin.
as §2

[4] = Acute toxicity, mouse (Table 4); format: in vivo
[5] = Acute toxicity, rat (Table 4); format: in vivo, Male Wister rats; settings: 500 mg/Kg oral, 7 days, deaths/animals
Method: Male Wister rats (weighting 130-170 g.), one group being 5 rats, fasted overnight were used in this test.
as §2

[6] = mouse, 25 mg/kg p.o., Evance blue i.v., acetic acid i.p., 590 nm
[7] = mouse, 50 mg/kg p.o., Evance blue i.v., acetic acid i.p., 590 nm
[8] = deaths/animals, method given for rats only (500 mg/Kg oral, 7 days)

Row | Structure (SMILES) | Inhibition (%) Permeability 25mg/kg p.o. [1, 6] | Inhibition (%) Permeability 50mg/kg p.o. [1, 7] | Inhibition (%) Writhing S 25mg/kg p.o. (writhings (acetic acid)) | Inhibition (%) Writhing S 50mg/kg p.o. (writhings (acetic acid)) | Inhibition (%) p.o. 50mg/kg [3] | Inhibition (%) p.o. 100mg/kg [3] | inhibition in vivo at 50 mg/kg [3] | further results
1 | Cc1c(N(C)C)c(=O)n(-c2ccccc2)n1C [Aminopyrine, reference compound] | 28.5% | 41.7% | 29.6% | 58.1% | – | – | – | Rectal temperature (mean ± SE) 1 hour [2]: 37.92 ± 0.09; Rectal temperature (mean ± SE) 2 hours [2]: 37.49 ± 0.10; Rectal temperature (mean ± SE) 4 hours [2]: 37.39 ± 0.07; Rectal temperature (mean ± SE) 6 hours [2]: 37.76 ± 0.18; Rectal temperature (mean ± SE) before [2]: 39.24 ± 0.14
2 | CN1CCCn2c1cc(-c1ccccc1)cc2=O [Test No. 1] | 18.0% | 44.4% | 41.8% | 87.6% | 71.5% | – | – | Rectal temperature (mean ± SE) 1 hour [2]: 37.07 ± 0.15; Rectal temperature (mean ± SE) 2 hours [2]: 36.17 ± 0.32; Rectal temperature (mean ± SE) 4 hours [2]: 36.12 ± 0.17; Rectal temperature (mean ± SE) 6 hours [2]: 38.52 ± 0.47; Rectal temperature (mean ± SE) before [2]: 38.82 ± 0.05
3 | O=c1cc(-c2ccccc2)cc2n1CCN2 [Test No. 2] | 26.9% | 51.1% | 28.9% | 52.6% | 71.6% | 76.1% | – | Rectal temperature (mean ± SE) 1 hour [2]: 37.80 ± 0.10; Rectal temperature (mean ± SE) 2 hours [2]: 36.74 ± 0.24; Rectal temperature (mean ± SE) 4 hours [2]: 36.77 ± 0.39; Rectal temperature (mean ± SE) 6 hours [2]: 37.51 ± 0.57; Rectal temperature (mean ± SE) before [2]: 38.89 ± 0.21; Number of deaths Mouse ([4]; in vivo): 0/5
4 | Cc1cc2n(c(=O)c1)CCN2C [Test No. 3, 1,7-dimethyl-5-oxo-1,2,3,5-tetrahydroimidazo[1,2-a]pyridine] | 18.5% | 46.2% | 52.1% | 75.3% | – | 51.5% | 52.3% | Number of deaths Mouse [4, 8]: 1/5
5 | O=c1cc(-c2ccccc2)cc2n1CC[S+]2[O-] (centres unmarked) [Test No. 4] | – | – | – | – | – | – | – | Number of deaths Rat [5]: 2/5; Number of deaths Mouse [4, 8]: 1/5
6 | CN1CCn2c1cc(-c1ccccc1)cc2=O [Test No. 5] | 20.0% | 42.1% | 41.2% | 67.4% | – | – | – | –
7 | O=c1cc(-c2ccccc2)cc2n1CCCN2 [Test No. 6] | 28.4% | 59.0% | 69.0% | 91.5% | 72.7% | 80.5% | – | –
8 | CN1CCn2c1ccc(-c1ccccc1)c2=O [Test No. 7, 1-methyl-5-oxo-6-phenyl-1,2,3,5-tetrahydroimidazo[1,2-a]pyridine] | 49.3% | 63.8% | 59.1% | 95.3% | – | 79.5% | 75% | –
9 | Cc1cc2n(c(=O)c1)CCCN2C [Test No. 8] | – | – | 35.6% | 66.4% | 53.3% | – | – | Inhibition (%) Permeability 25mg/kg p.o. ([1]; 25 mg/kg): 32.4%; Inhibition (%) Permeability 50mg/kg p.o. ([1]; 50 mg/kg): 25.8%
10 | CCN1CCn2c1cc(-c1ccccc1)cc2=O [Test No. 9] | – | – | – | – | – | – | – | Number of deaths Rat [5]: 0/5; Number of deaths Mouse [4, 8]: 0/5
11 | O=c1cc(-c2ccccc2)cc2n1CCS2 [Test No. 10] | – | – | – | – | – | – | – | Number of deaths Rat [5]: 0/5; Number of deaths Mouse [4, 8]: 0/5
12 | CN1CCCn2c1cc(-c1ccc(Cl)cc1)cc2=O [Test No. 11] | – | – | – | – | 47.1% | – | – | –
13 | CN1CCn2c1cc1c(c2=O)CCC1 [Test No. 13, 1-methyl-5-oxo-1,2,3,6,7,8-hexahydroimidazo[1,2-b]1H-2-pyrindine] | – | – | – | – | 57.1% | – | – | –
14 | CN1CCn2c1cc1c(c2=O)CCCC1 [Test No. 14, 1-methyl-5-oxo-1,2,3,5,6,7,8,9-octahydroimidazo[1,2-b]isoquinoline] | – | – | – | – | – | – | 64.1% | –
15 | CN1CCCn2c1cc1c(c2=O)CCCC1 [Test No. 15, 1-methyl-6-oxo-1,2,3,4,6,7,8,9,10-nonahydropyrimido[1,2-b]isoquinoline] | – | – | – | – | – | – | 52.4% | –
16 | Cc1cc2n(c(=O)c1-c1ccccc1)CCN2C [Test No. 16, 1,7-dimethyl-5-oxo-6-phenyl-1,2,3,5-tetrahydroimidazo[1,2-a]pyridine] | – | – | – | – | – | – | 47.7% | –
17 | Cc1c(-c2ccccc2)cc2n(c1=O)CCCN2C [Test No. 17, 1,7-dimethyl-6-oxo-8-phenyl-1,2,3,4,6-pentahydropyrido[1,2-a]pyrimidine] | – | – | – | – | – | – | 45.7% | –
18 | Cc1cc(=O)n2c(c1-c1ccccc1)N(C)CC2 [Test No. 18, 1,7-dimethyl-5-oxo-8-phenyl-1,2,3,5-tetrahydroimidazo[1,2-a]pyridine] | – | – | – | – | – | 41.0% | – | –
19 | Cc1cc(=O)n2c(c1-c1ccccc1)NCCC2 [Test No. 19] | – | – | – | – | – | 46.7% | – | –
20 | CC1CNc2cc(-c3ccccc3)cc(=O)n21 (centres unmarked) [Test No. 20] | – | – | – | – | 72.2% | – | – | –
21 | O=c1cc(-c2ccccc2)cc2sccn12 [Test No. 21] | – | – | – | – | 46.9% | – | – | –
22 | CCCCC1C(=O)N(c2ccccc2)N(c2ccccc2)C1=O [phenylbutazone, reference compound] | – | – | – | – | – | 51.2% | 44.5% | –
